Molecular target: T1, integrin α4β1 (Homo sapiens, UniProt P05556+P13612)
T1 construct: endogenous in cells; host or cells: Jurkat cells
Assay: Inhibition of α4β1-dependent cell adhesion (Jurkat cells to peptide CS-1)
Type: cell-based
Details: adhesion of Jurkat cells to CS-1-coated plates; products preincubated with cells at 37° C. for 30 minutes; at least 6 product concentrations
Procedure: Inhibition of α4β1-Dependent Cell Adhesion
Inhibition of α4β1-dependent cell adhesion was assayed by evaluating the interaction between the peptide CS-1 (H-CLHGPEILDVPST-CONH2) and Jurkat cells (T lymphocyte cell line expressing activated integrin α4β1 but not integrin α4β7) after preincubation of said cells with the compounds of formula I to be tested. The peptide CS-1 was synthesized by conventional solid phase chemistry and purified by HPLC. Its identity was determined by elemental analysis and mass spectroscopy.
1.—Preparation of CS-1-Coated Plates
96-black well plates (Costar 3925) were used. 200 μL of 2% bovine serum albumin solution (BSA, Sigma α4503) was added per well and the plate was incubated for 2 hours at 37° C. The solution was discarded and the plate was washed twice with 200 μL of phosphate buffered saline solution (PBS, Gibco 14190-094) per well. Then, 200 μL of 10 μg/mL N-succinimidyl 3-(2-pyridyldithio)propionate solution (SPDP, Sigma P-3415) was added per well, and the plate was incubated at 37° C. for 30 minutes. The remaining solution was discarded and the plate was twice washed with 200 μL per well of PBS. Next, 200 μL of 25 μg/mL CS-1 peptide solution (equivalent to 5 μg/well) was added per well and the plate was incubated at 37° C. for 2 hours and then overnight at 4° C.
2.—Jurkat Cell Line: Culture and Fluorescent Labelling
Jurkat cells were kept in culture at a density comprised between 2×10^5 and 1.5×10^6 cells/mL in 1640 RPMI medium (Gibco 21875-034) enriched with 10% fetal calf serum (FCS, Gibco 10270-106).
50×10^6 cells were extracted, centrifuged (1200 rpm, 10 min, room temperature) and the medium was discarded. Cells were resuspended in 5 mL of RPMI, and 10 μL of a 1 mM solution of the fluorophore calceine.AM (Molecular Probes, C-3100) was added. The suspension was incubated for 30 min at 37° C. in the darkness, with occasional shaking. 40 mL of RPMI was added to stop the labelling and the suspension was centrifuged (1200 rpm, 10 min, room temperature). The medium was discarded, and the labelled cells were washed with 40 mL of RPMI in order to remove the unincorporated fluorescent probe. Finally, cells were resuspended in RPMI enriched with 10% FCS to obtain a 8×10^6 cells/mL suspension.
The plate previously prepared was twice washed with 200 μL per well of PBS and blocked with 200 μL of 1% BSA for at least 1 hour at room temperature.
The products to be tested were dissolved in dimethylsulfoxide at a concentration of 10 mM and dilutions thereof were prepared in RPMI medium enriched with 10% FCS. The products were preincubated with the Jurkat cells at 37° C. for 30 minutes, at a product concentration comprised between 1 nM and 10 μM, at a cell density of 4×10^6 cells/mL and at a maximal dimethylsulfoxide concentration of 0.1%.
100 μL of the resulting cell-product supsension was added per well (cellular density 4×10^5 cells/well). The product was omitted in the control wells and cells or CS-1 were omitted in the blanks. The plate was incubated for 60 min at room temperature in the-darkness, was twice washed with 200 μL per well of RPMI and then 100 μL of PBS was added. The plate was read with a fluorescence reader at an excitation wavelength of 485 nm and at an emission wavelength of 530 nm.
Maximal adhesion (100%) was determined as the average of the fluorescence intensities (FI) of the control wells, and the minimal adhesion as the average FI of the blanks. The adhesion inhibition percentage was determined using the following formula: [formula]
The results are expressed as the IC50 values (concentration producing 50% inhibition). IC50 values were calculated by testing at least 6 product concentrations and by adjusting the inhibition percentages to a dose-response curve of variable slope.

T1 sequence (P13612 34-1032): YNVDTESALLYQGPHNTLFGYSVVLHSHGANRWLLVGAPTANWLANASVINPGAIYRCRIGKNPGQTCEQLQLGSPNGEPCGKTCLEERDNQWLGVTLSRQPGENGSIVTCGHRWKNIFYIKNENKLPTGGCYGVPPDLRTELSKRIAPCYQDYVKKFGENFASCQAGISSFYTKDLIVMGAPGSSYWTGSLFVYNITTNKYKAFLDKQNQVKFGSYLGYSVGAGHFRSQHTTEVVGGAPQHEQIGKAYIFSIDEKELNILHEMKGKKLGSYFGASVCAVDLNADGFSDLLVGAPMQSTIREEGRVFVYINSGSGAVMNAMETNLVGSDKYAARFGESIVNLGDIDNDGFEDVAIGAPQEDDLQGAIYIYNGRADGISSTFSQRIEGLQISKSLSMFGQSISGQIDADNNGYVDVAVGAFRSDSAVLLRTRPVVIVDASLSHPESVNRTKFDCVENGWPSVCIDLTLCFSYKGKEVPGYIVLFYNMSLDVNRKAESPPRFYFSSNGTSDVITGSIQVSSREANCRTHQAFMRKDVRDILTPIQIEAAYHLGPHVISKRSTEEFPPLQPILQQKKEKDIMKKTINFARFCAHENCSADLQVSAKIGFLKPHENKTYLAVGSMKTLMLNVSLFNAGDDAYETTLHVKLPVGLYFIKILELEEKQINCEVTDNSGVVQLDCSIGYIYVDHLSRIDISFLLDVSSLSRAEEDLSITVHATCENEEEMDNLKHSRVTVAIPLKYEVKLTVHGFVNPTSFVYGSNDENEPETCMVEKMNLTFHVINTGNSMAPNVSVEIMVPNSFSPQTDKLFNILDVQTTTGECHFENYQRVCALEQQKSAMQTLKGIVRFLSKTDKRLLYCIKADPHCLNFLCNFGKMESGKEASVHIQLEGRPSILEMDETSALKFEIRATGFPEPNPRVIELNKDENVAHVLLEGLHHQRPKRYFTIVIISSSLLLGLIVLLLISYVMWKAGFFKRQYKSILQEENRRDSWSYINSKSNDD
T1 sequence (P05556 21-798): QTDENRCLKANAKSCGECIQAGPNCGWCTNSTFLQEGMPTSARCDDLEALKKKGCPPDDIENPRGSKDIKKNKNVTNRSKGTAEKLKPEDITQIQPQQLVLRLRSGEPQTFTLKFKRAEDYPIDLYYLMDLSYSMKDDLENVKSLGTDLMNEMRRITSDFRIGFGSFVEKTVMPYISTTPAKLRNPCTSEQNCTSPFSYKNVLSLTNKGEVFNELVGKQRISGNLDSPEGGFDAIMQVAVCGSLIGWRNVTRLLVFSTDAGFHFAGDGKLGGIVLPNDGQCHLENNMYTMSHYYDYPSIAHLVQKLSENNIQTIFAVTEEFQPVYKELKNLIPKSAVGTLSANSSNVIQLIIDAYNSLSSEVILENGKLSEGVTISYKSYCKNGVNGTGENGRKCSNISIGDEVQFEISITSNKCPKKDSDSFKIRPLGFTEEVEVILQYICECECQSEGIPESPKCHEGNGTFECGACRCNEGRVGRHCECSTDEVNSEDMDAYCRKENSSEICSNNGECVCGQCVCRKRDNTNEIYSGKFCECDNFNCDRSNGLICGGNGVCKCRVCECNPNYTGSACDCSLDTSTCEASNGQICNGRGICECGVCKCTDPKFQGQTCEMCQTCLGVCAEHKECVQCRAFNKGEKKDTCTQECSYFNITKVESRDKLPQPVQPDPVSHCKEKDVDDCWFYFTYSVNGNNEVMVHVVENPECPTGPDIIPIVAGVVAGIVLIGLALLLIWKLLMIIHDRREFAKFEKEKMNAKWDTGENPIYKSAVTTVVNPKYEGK

Row | Compound | IC50
1 | O=C(O)[C@H](CCC(=O)N1CCC(CCOC(=O)N2CCCC2)CC1)NC(=O)[C@@H]1CCCN1S(=O)(=O)c1cc(Cl)cc(Cl)c1 [Example 61, (2S)-2-[1-(3,5-Dichlorophenylsulfonyl)-L-prolylamino]-5-oxo-5-[4-[2-(pyrrolidin-1-ylcarbonyloxy)ethyl]piperidin-1-yl]pentanoic Acid] | 2.3 nM
2 | Cc1ccc(S(=O)(=O)N2CCC[C@H]2C(=O)N[C@@H](CCC(=O)N2CCC(Cn3ccnc3-c3ccccc3)CC2)C(=O)O)cc1 [Example 63, (2S)-5-Oxo-5-[4-(2-phenylimidazol-1-ylmethyl)piperidin-1-yl]-2-[1-tosyl-L-prolylamino]pentanoic Acid] | 198 nM
3 | Cc1ccc(S(=O)(=O)N2CCC[C@H]2C(=O)N[C@@H](CCC(=O)N2CCN(Cc3ccccn3)CC2)C(=O)O)cc1 [Example 75, (2S)-5-Oxo-5-[4-(2-pyridylmethyl)piperazin-1-yl]-2-[[1-tosyl-L-prolyl]amino]pentanoic Acid] | 101 nM
4 | CCc1nc2c(C)cc(C)nc2n1CC1CCN(C(=O)CC[C@H](NC(=O)[C@@H]2CCCN2S(=O)(=O)c2cc(Cl)cc(Cl)c2)C(=O)O)CC1 [Example 65] | 45 nM
5 | Cc1ccc(S(=O)(=O)N2CCC[C@H]2C(=O)N[C@@H](CCC(=O)N2CCC(Cn3c(C)nc4cnccc43)CC2)C(=O)O)cc1 [Example 73, (2S)-5-[4-(2-Methylimidazo[4,5-c]pyridin-1-ylmethyl)piperidin-1-yl]-5-oxo-2-[1-tosyl-L-prolylamino]pentanoic Acid] | 57 nM
6 | COCCNC(=O)OCCC1CCN(C(=O)CC[C@H](NC(=O)[C@@H]2CCCN2S(=O)(=O)c2cc(Cl)cc(Cl)c2)C(=O)O)CC1 [Example 66] | 3.5 nM
7 | CCOCCn1c(CN2CCN(C(=O)CC[C@H](NC(=O)[C@@H]3CCCN3S(=O)(=O)c3ccc(C)cc3)C(=O)O)CC2)nc2ccccc21 [Example 74, (2S)-5-[4-[[1-(2-Ethoxyethyl)benzimidazol-2-yl]methyl]piperazin-1-yl]-5-oxo-2-[[1-tosyl-L-prolyl]amino]pentanoic Acid] | 48 nM
8 | Cc1ccc(S(=O)(=O)N2CCC[C@H]2C(=O)N[C@@H](CCC(=O)N2CCC(CN3Cc4ccccc4C3=O)CC2)C(=O)O)cc1 [Example 76, (2S)-5-Oxo-5-[4-(1-oxoisoindolin-2-ylmethyl)piperidin-1-yl]-2-[[1-tosyl-L-prolyl]amino]pentanoic Acid] | 67 nM
9 | (2S)-2-[1-(3,5-Dichlorophenylsulfonyl)-L-prolylamino]-5-oxo-5-[4-(1-pyrrolylmethyl)piperidin-1-yl]pentanoic Acid [Example 81] | 33 nM
10 | O=C(O)[C@H](CCC(=O)N1CCC(CN2CCOC2=O)CC1)NC(=O)[C@@H]1CCCN1S(=O)(=O)c1cc(Cl)cc(Cl)c1 [Example 70, (2S)-2-[1-(3,5-Dichlorophenylsulfonyl)-L-prolylamino]-5-oxo-5-[4-(2-oxooxazolidin-3-ylmethyl)piperidin-1-yl]pentanoic Acid] | 17 nM
11 | O=C(O)[C@H](CCC(=O)N1CCC(CNC(=O)N2CCOCC2)CC1)NC(=O)[C@@H]1CCCN1S(=O)(=O)c1cc(Cl)cc(Cl)c1 [Example 67, (2S)-2-[1-(3,5-Dichlorophenylsulfonyl)-L-prolylamino]-5-[4-(4-morpholinylcarbonylaminomethyl)piperidin-1-yl]-5-oxopentanoic Acid] | 33 nM

Other lines, results leading:

Row | IC50 | Compound
12 | 12 nM | CCc1nc2cnccc2n1CC1CCN(C(=O)CC[C@H](NC(=O)[C@@H]2CCCN2S(=O)(=O)c2cc(Cl)cc(Cl)c2)C(=O)O)CC1 [Example 85, (2S)-2-[1-(3,5-Dichlorophenylsulfonyl)-L-prolylamino]-5-[4-(2-ethylimidazo[4,5-c]pyridin-1-ylmethyl)piperidin-1-yl]-5-oxopentanoic Acid]
13 | 49.8 nM | CCCc1nc2cnccc2n1CC1CCN(C(=O)CC[C@H](NC(=O)[C@@H]2CCCN2S(=O)(=O)c2cc(Cl)cc(Cl)c2)C(=O)O)CC1 [Example 119, (2S)-2-[1-(3,5-Dichlorophenylsulfonyl)-L-prolylamino]-5-oxo-5-[4-(2-propylimidazo[4,5-c]pyridin-1-ylmethyl)piperidin-1-yl]pentanoic Acid]
14 | 64.6 nM | CCN(CC)CCC1CCN(C(=O)CC[C@H](NC(=O)[C@@H]2CCCN2S(=O)(=O)c2cc(Cl)cc(Cl)c2)C(=O)O)CC1 [Example 91, (2S)-2-[1-(3,5-Dichlorophenylsulfonyl)-L-prolylamino]-5-[4-[2-(diethylamino)ethyl]piperidin-1-yl]-5-oxopentanoic Acid]
15 | 6 nM | CN(C)CCN1CCN(C(=O)CC[C@H](NC(=O)[C@@H]2CCCN2S(=O)(=O)c2cc(Cl)cc(Cl)c2)C(=O)O)CC1 [Example 84, (2S)-2-[1-(3,5-Dichlorophenylsulfonyl)-L-prolylamino]-5-[4-[2-(dimethylamino)ethyl]piperazin-1-yl]-5-oxopentanoic Acid]
16 | 26.7 nM | CN1CCN(C(=O)OCCC2CCN(C(=O)CC[C@H](NC(=O)[C@@H]3CCCN3S(=O)(=O)c3cc(Cl)cc(Cl)c3)C(=O)O)CC2)CC1 [Example 93, (2S)-2-[1-(3,5-Dichlorophenylsulfonyl)-L-prolylamino]-5-[4-[2-[(4-methylpiperazin-1-yl)carbonyloxy]ethyl]piperidin-1-yl]5-oxopentanoic Acid]
17 | 83.9 nM | CCN(CC)CC1CCN(C(=O)CC[C@H](NC(=O)[C@@H]2CCCN2S(=O)(=O)c2cc(Cl)cc(Cl)c2)C(=O)O)CC1 [Example 88, (2S)-2-[1-(3,5-Dichlorophenylsulfonyl)-L-prolylamino]-5-[4-(diethylaminomethyl)piperidin-1-yl]-5-oxopentanoic Acid]
18 | 0.5 nM | O=C(O)[C@H](CCC(=O)N1CCC(CCN2CCOCC2)CC1)NC(=O)[C@@H]1CCCN1S(=O)(=O)c1cc(Cl)cc(Cl)c1 [Example 80, (2S)-2-[1-(3,5-Dichlorophenylsulfonyl)-L-prolylamino]-5-[4-[2-(4-morpholinyl)ethyl]piperidin-1-yl]-5-oxopentanoic Acid]
19 | 135 nM | O=C(O)[C@H](CCC(=O)N1CCC(CCOC(=O)N2CCN(c3ccccc3)CC2)CC1)NC(=O)[C@@H]1CCCN1S(=O)(=O)c1cc(Cl)cc(Cl)c1 [Example 117, (2S)-2-[1-(3,5-Dichlorophenylsulfonyl)-L-prolylamino]-5-oxo-5-[4-[2-(4-phenylpiperazin-1-ylcarbonyloxy)ethyl]piperidin-1-yl]pentanoic Acid]
20 | 7.6 nM | CN1CCN(CC2CCN(C(=O)CC[C@H](NC(=O)[C@@H]3CCCN3S(=O)(=O)c3cc(Cl)cc(Cl)c3)C(=O)O)CC2)CC1 [Example 79, (2S)-2-[1-(3,5-Dichlorophenylsulfonyl)-L-prolylamino]-5-[4-(4-methylpiperazin-1-ylmethyl)piperidin-1-yl]-5-oxopentanoic Acid]
21 | 18 nM | O=C(O)[C@H](CCC(=O)N1CCC(Cn2c(=O)[nH]c3cnccc32)CC1)NC(=O)[C@@H]1CCCN1S(=O)(=O)c1cc(Cl)cc(Cl)c1 [Example 86, (2S)-2-[1-(3,5-Dichlorophenylsulfonyl)-L-prolylamino]-5-oxo-5-[4-(2-oxo-2,3-dihydroimidazo[4,5-c]pyridin-1-ylmethyl)piperidin-1-yl]pentanoic Acid]
22 | 89 nM | Cc1ccc(C)n1CC1CCN(C(=O)CC[C@H](NC(=O)[C@@H]2CCCN2S(=O)(=O)c2cc(Cl)cc(Cl)c2)C(=O)O)CC1 [Example 82, (2S)-2-[1-(3,5-Dichlorophenylsulfonyl)-L-prolylamino]-5-[4-(2,5-dimethylpyrrol-1-ylmethyl)piperidin-1-yl]-5-oxopentanoic Acid]

From patent US20050143391A1, “Heterocyclic amides with alpha-4 integrin antagonist activity” (J. Uriach Y Compañia S.A., priority 2002, published 2005)
